From PubChem BioAssay (NCI)
Several values for one entry are separate records, joined by “and”; a condition that tells them apart may be missing. Equal entries are not always repeated.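 Cells were grown in 96-well plates and exposed to each compound for 48 hours at five concentrations; endpoints were interpolated linearly between bracketing concentrations, or set to the highest concentration if not reached. The concentration for 50% growth inhibition is given as GI50. Definition used: TGI = concentration required for complete inhibition of growth.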

What was measured:
Assay in all cases: inhibition of tumour cell growth, NCI panel, 48 h
[1] = tested on: EKVX NSCLC
[2] = tested on: HT29 colon
[3] = tested on: LOX IMVI melanoma
[4] = tested on: OVCAR-4 ovarian
[5] = tested on: SK-MEL-28 melanoma
[6] = tested on: SK-OV-3 ovarian
[7] = tested on: 786-0 renal
[8] = tested on: MDA-MB-231 breast
[9] = tested on: MDA-N
[10] = tested on: DU-145 prostate
[11] = tested on: T-47D breast

Structure (SMILES) | TGI [1] [µM] | TGI [2] | TGI [3] [µM] | TGI [4] [µM] | TGI [5] [µM] | TGI [6] | TGI [7] [µM] | TGI [8] [µM] | TGI [9] [µM] | TGI [10] [µM] | TGI [11] [µM] | GI50 [10] [nM] | GI50 [1] [nM] | GI50 [2] [nM] | GI50 [3] [nM] | GI50 [8] [nM] | GI50 [4] [µM] | GI50 [5] [nM] | GI50 [6] [nM] | GI50 [11] [nM]
Nc1c(N=Nc2ccc(-c3ccc(N=Nc4c(O)ccc5cc(S(=O)(=O)O)cc(S(=O)(=O)O)c45)cc3)cc2)c(S(=O)(=O)O)cc2cc(S(=O)(=O)O)c(N=Nc3ccccc3)c(O)c12 | > 100 | > 100 µM | > 100 | > 100 | > 100 | > 100 µM | – | – | – | – | – | – | – | – | – | – | – | – | – | –
CCOC(=O)C1CCCCc2sc(N)c(C#N)c21 (stereo not drawn) | > 100 | > 100 µM | – | – | > 100 | – | > 100 | > 100 | > 100 | – | – | – | – | – | – | – | – | – | – | –
CC(C)CCCC(C)[C@H]1CC[C@H]2N=C(Nc3ccccc3)CCC[C@]12C (stereo partly drawn) | – | 4.09 µM | 4.07 | 14.4 | 3.89 | 4.11 µM | 3.45 | 3.04 | 10.9 | > 100 | 14.2 | – | – | – | – | – | – | – | – | –
[N-]=[N+]=C(C(=O)C(=[N+]=[N-])C(=O)c1ccccc1)C(=O)c1ccccc1 | > 100 | > 100 µM | > 100 | – | > 100 | – | > 100 | > 100 | > 100 | > 100 | – | – | – | – | – | – | – | – | – | –
Cc1cc2occ(-c3ccc(Cl)cc3)c2c(=O)o1 | > 100 | > 100 µM | > 100 | > 100 | > 100 | > 100 µM | > 100 | – | – | – | – | – | – | – | – | – | – | – | – | –
CC(C)=CCC[C@@H](C)c1c2[nH]c3ccccc3sc-2c(C)c(=O)c1=O | > 75 | > 27.4 µM | > 29 | > 75 | > 75 | > 75 µM | 24.1 | > 75 | – | > 75 | 23.1 | – | – | – | – | – | – | – | – | –
O=C1CSc2nnc(CCCCCCCCc3nnc4n3NC(=O)CS4)n2N1 | > 100 | > 100 µM | – | > 100 | > 100 | > 100 µM | > 100 | > 100 | > 100 | > 100 | > 100 | – | – | – | – | – | – | – | – | –
Cc1cc(S(=O)(=O)O)c(NC(=O)c2oc3cc(O)ccc3c(=O)c2C)cc1Cl | > 100 | > 100 µM | > 100 | > 100 | > 100 | > 100 µM | > 100 | > 100 | > 100 | – | > 100 | – | – | – | – | – | – | – | – | –
O=S1(=O)OCCOS(=O)(=O)C1Cc1nc2ccccc2[nH]1 | > 100 | > 100 µM | 38.1 | > 100 | > 100 | – | > 100 | > 100 | > 100 | > 100 | – | – | – | – | – | – | – | – | – | –
CC(=O)NC1=C(NCC(C)C)C(=O)c2ccccc2C1=O | 59.9 | > 100 µM | 30.1 | > 100 | 37.2 | > 100 µM | 31.9 | – | – | – | – | – | – | – | – | – | – | – | – | –
Cc1ccc(S(=O)(=O)N/N=C2\C3CC4CC(C3)C2C4)cc1 (stereo not drawn) | – | > 100 µM | > 100 | > 100 | > 100 | > 100 µM | > 100 | > 100 | > 100 | – | > 100 | – | – | – | – | – | – | – | – | –
COc1cc2cc(C(=O)N3CC(CCl)c4c3cc([N+](C)(C)Cc3ccc([N+](=O)[O-])n3C)c3ccccc43)[nH]c2c(OC)c1OC (stereo not drawn) | 16.4 | > 100 µM | 12.3 | 6.35 | 9.11 | > 100 µM | – | – | 6.64 | 23.8 | 38.9 | – | – | – | – | – | – | – | – | –
O=S(=O)(O)C1CCC(O)C2[N-]CCCC21.O=S(=O)(O)C1CCC(O)C2[N-]CCCC21.[Zn+2] (stereo not drawn) | > 100 | > 100 µM | > 100 | > 100 | > 100 | > 100 µM | > 100 | > 100 | – | > 100 | > 100 | – | – | – | – | – | – | – | – | –
COc1cc(-n2cc(-c3cc(O)c(C/C=C(\C)CCC=C(C)C)c(O)c3)nn2)cc2c1O[C@]1(C)CC[C@@H](O)C(C)(C)[C@H]1C2 | 44.1 | 5.81 µM | 1.09 | 41.6 | 27.6 | 33.3 µM | – | 3.24 | – | 26.3 | 47.2 | 2300 | 2280 | 1710 | 186 | 275 | 3.13 | 754 | 2300 | 1340
Cc1cc2n([O-])cccc-2[n+](=O)c1 | > 100 | > 100 µM | – | > 100 | > 100 | > 100 µM | – | – | – | – | – | – | – | – | – | – | – | – | – | –
CC(C)(C)CC(C)(C)c1ccc(OCCOCC[N+](C)(C)Cc2ccccc2)cc1 | 16.9 | 2.49 µM and 3.3 µM | – | 9.38 | 3.68 | 2.94 µM and 25.7 µM | 24.4 | 2.82 | – | 3.36 | – | 1770 | – | 1140 | – | 1340 | – | – | 1460 | –
C/C(=C\Cc1cc(O)ccc1O)CCc1c(C)cc(O)c(C=O)c1C | > 100 | 48.6 µM | – | > 100 | 54.7 | > 100 µM | 62.6 | – | – | – | – | – | – | – | – | – | – | – | – | –
CCCCCCCCCCCCCCCCOCC(Cl)COP(=O)(O)OP(=O)(O)OCC1OC(n2cnc3c(N)ncnc32)C(O)C1O (stereo not drawn) | > 100 | > 100 µM | > 100 | > 100 | > 100 | > 100 µM | > 100 | > 100 | > 100 | – | > 100 | – | – | – | – | – | – | – | – | –
O=C(OCc1ccccc1C1CSCSC1)c1cc(C(=O)OCc2ccccc2C2CSCSC2)c(C(=O)OCc2ccccc2C2CSCSC2)cc1C(=O)OCc1ccccc1C1CSCSC1 | – | > 100 µM | > 100 | > 100 | > 100 | > 100 µM | > 100 | – | – | – | – | – | – | – | – | – | – | – | – | –
COC(=O)/C=C/c1ccc2c(c1)CC1(Cc3ccccc3C1)C2 | > 100 | > 100 µM | > 100 | > 100 | – | > 100 µM | > 100 | > 100 | > 100 | – | > 100 | – | – | – | – | – | – | – | – | –
COc1ccc(-c2c3ccccc3c(-c3ccc(OCCCCCBr)cc3)c3ccccc23)cc1 | > 100 | > 100 µM | > 100 | > 100 | > 100 | > 100 µM | – | – | – | – | – | – | – | – | – | – | – | – | – | –
CC(=O)CC1(C)OC(N)=C(C#N)C1(C#N)C#N (stereo not drawn) | > 100 | > 100 µM | > 100 | – | > 100 | > 100 µM | > 100 | > 100 | > 100 | > 100 | > 100 | – | – | – | – | – | – | – | – | –
